Source: ChEMBL document CHEMBL5550173, “Design, synthesis and biological evaluation of indoline-maleimide conjugates as potential antitumor agents for the treatment of colorectal cancer” (Bioorg Med Chem, 2024)
The source made the active and inactive calls. No cut-off for these calls is given here.

What was measured:
[1] = Acute toxicity in BALB/c mouse assessed as kidney lesion at 50 to 100 mg/kg, ip measured every 2 days by H and E staining based assay; assay type: organism-based; settings: in vivo, 48 h, dose 50-100 mg/kg
[2] = Acute toxicity in BALB/c mouse assessed as liver lesion at 50 to 100 mg/kg, ip measured every 2 days by H and E staining based assay; assay type: organism-based; settings: in vivo, 48 h, dose 50-100 mg/kg
RKO [3] = test: Induction of apoptosis in human RKO cells assessed as viable cells at 5 uM incubated for 48 hrs by Annexin V-PE and propidium iodide staining based flow cytometry analysis (reference value: 99.2%); assay type: functional; settings: read-out: Activity
RKO [4] = test: Induction of apoptosis in human RKO cells assessed as late apoptotic cells at 10 uM incubated for 48 hrs by Annexin V-PE and propidium iodide staining based flow cytometry analysis (reference value: 0.3%); assay type: functional
RKO [5] = test: Cytotoxicity against human RKO cells incubated for 72 hrs by MTS assay; assay type: functional, cell-based
RKO [6] = test: Effect on cyclin D1 expression in human RKO cells at 2.5 to 10 uM incubated for 48 hrs by Western blotting analysis; assay type: functional, cell-based; settings: dose 2.5-10 µM
RKO [7] = test: Induction of apoptosis in human RKO cells assessed as viable cells at 2.5 uM incubated for 48 hrs by Annexin V-PE and propidium iodide staining based flow cytometry analysis (reference value: 99.2%); assay type: functional; settings: read-out: Activity
HCT-116 [8] = test: Effect on RB1 expression in human HCT-116 cells at 2.5 to 10 uM incubated for 48 hrs by Western blotting analysis; assay type: functional, cell-based; settings: dose 2.5-10 µM
HCT-116 [9] = test: Induction of apoptosis in human HCT-116 cells assessed as necrotic cells at 2.5 uM incubated for 48 hrs by Annexin V-PE and propidium iodide staining based flow cytometry analysis (reference value: 1.3%); assay type: functional
[10] = Toxicity in BALB/c nude mouse assessed as changes in body weight at 5 to 10 mg/kg, ip administered every 2 days; assay type: organism-based; settings: in vivo, 48 h, dose 5-10 mg/kg
HCT-116 [11] = test: Induction of apoptosis in human HCT-116 cells assessed as late apoptotic cells at 2.5 uM incubated for 48 hrs by Annexin V-PE and propidium iodide staining based flow cytometry analysis (reference value: 0.5%); assay type: functional
RKO [12] = test: Induction of apoptosis in human RKO cells assessed as early apoptotic cells at 10 uM incubated for 48 hrs by Annexin V-PE and propidium iodide staining based flow cytometry analysis (reference value: 0.2%); assay type: functional
[13] = Acute toxicity in BALB/c mouse assessed as body weight loss at 50 to 100 mg/kg, ip measured every 2 days; assay type: organism-based; settings: in vivo, 48 h, dose 50-100 mg/kg
RKO [14] = test: Effect on CDK2 expression in human RKO cells at 2.5 to 10 uM incubated for 48 hrs by Western blotting analysis; assay type: functional, cell-based; settings: dose 2.5-10 µM
HCT-116 [15] = test: Induction of cell cycle arrest in human HCT-116 cells assessed as upregulation of p53 expression at 2.5 to 10 uM incubated for 48 hrs by Western blotting analysis; assay type: functional, cell-based; settings: dose 2.5-10 µM
HCT-116 [16] = test: Induction of cell cycle arrest in human HCT-116 cells assessed as decrease in S phase cells incubated for 48 hrs by propidium iodide staining based flow cytometry analysis; assay type: functional; settings: dose 2.5-10 µM
RKO [17] = test: Induction of apoptosis in human RKO cells assessed as early apoptotic cells at 5 uM incubated for 48 hrs by Annexin V-PE and propidium iodide staining based flow cytometry analysis (reference value: 0.2%); assay type: functional
HCT-116 [18] = test: Induction of apoptosis in human HCT-116 cells assessed as upregulation of cleaved caspase-7 expression incubated for 48 hrs by Western blotting analysis; assay type: functional, cell-based; settings: dose 2.5-10 µM
HCT-116 [19] = test: Effect on CDK2 expression in human HCT-116 cells at 2.5 to 10 uM incubated for 48 hrs by Western blotting analysis; assay type: functional, cell-based; settings: dose 2.5-10 µM
HCT-116 [20] = test: Induction of cell cycle arrest in human HCT-116 cells assessed as upregulation of p21 expression at 2.5 to 10 uM incubated for 48 hrs by Western blotting analysis; assay type: functional, cell-based; settings: dose 2.5-10 µM
RKO [21] = test: Induction of apoptosis in human RKO cells assessed as viable cells at 10 uM incubated for 48 hrs by Annexin V-PE and propidium iodide staining based flow cytometry analysis (reference value: 99.2%); assay type: functional; settings: read-out: Activity
[22] = Cytotoxicity against human NCM460 cells incubated for 72 hrs by MTS assay; assay type: toxicity, cell-based
HCT-116 [23] = test: Effect on GSK-3beta level in human HCT-116 cells at 2.5 to 10 uM incubated for 48 hrs by Western blotting analysis; assay type: functional, cell-based; settings: dose 2.5-10 µM
HCT-116 [24] = test: Induction of cell cycle arrest in human HCT-116 cells assessed as accumulation of cells at G0/G1 phase incubated for 48 hrs by propidium iodide staining based flow cytometry analysis; assay type: functional; settings: dose 2.5-10 µM
HCT-116 [25] = test: Cytotoxicity against human HCT-116 cells incubated for 72 hrs by MTS assay; assay type: functional, cell-based; settings: HCT-116, 72 h
HCT-116 [26] = test: Induction of apoptosis in human HCT-116 cells assessed as necrotic cells at 5 uM incubated for 48 hrs by Annexin V-PE and propidium iodide staining based flow cytometry analysis (reference value: 1.3%); assay type: functional
[27] = Acute toxicity in BALB/c mouse assessed as heart lesion at 50 to 100 mg/kg, ip measured every 2 days by H and E staining based assay; assay type: organism-based; settings: in vivo, 48 h, dose 50-100 mg/kg
HCT-116 [28] = test: Induction of cell cycle arrest in human HCT-116 cells assessed as downregulation of p-Rb expression at 2.5 to 10 uM incubated for 48 hrs by Western blotting analysis; assay type: functional, cell-based; settings: dose 2.5-10 µM
HCT-116 [29] = test: Antitumor activity against human HCT-116 cells xenografted in BALB/c mouse assessed as reduction in Ki67 protein expression at 5 to 10 mg/kg, ip measured every 2 days by immunohistochemistry analysis; assay type: functional, organism-based; settings: dose 5-10 mg/kg
RKO [30] = test: Cytotoxicity against human RKO cells at 5 uM incubated for 72 hrs by MTS assay; assay type: functional
HCT-116 [31] = test: Induction of apoptosis in human HCT-116 cells assessed as early apoptotic cells at 2.5 uM incubated for 48 hrs by Annexin V-PE and propidium iodide staining based flow cytometry analysis (reference value: 0.4%); assay type: functional
HCT-116 [32] = test: Induction of apoptosis in human HCT-116 cells assessed as late apoptotic cells at 5 uM incubated for 48 hrs by Annexin V-PE and propidium iodide staining based flow cytometry analysis (reference value: 0.5%); assay type: functional
RKO [33] = test: Induction of apoptosis in human RKO cells assessed as late apoptotic cells at 5 uM incubated for 48 hrs by Annexin V-PE and propidium iodide staining based flow cytometry analysis (reference value: 0.3%); assay type: functional
RKO [34] = test: Induction of apoptosis in human RKO cells assessed as necrotic cells at 2.5 uM incubated for 48 hrs by Annexin V-PE and propidium iodide staining based flow cytometry analysis (reference value: 0.3%); assay type: functional
HT-29 = test: Cytotoxicity against human HT-29 cells incubated for 72 hrs by MTS assay; assay type: functional, cell-based; settings: HT-29, 72 h
[35] = Acute toxicity in BALB/c mouse assessed as spleen lesion at 50 to 100 mg/kg, ip measured every 2 days by H and E staining based assay; assay type: organism-based; settings: in vivo, 48 h, dose 50-100 mg/kg
RKO [36] = test: Induction of apoptosis in human RKO cells assessed as early apoptotic cells at 2.5 uM incubated for 48 hrs by Annexin V-PE and propidium iodide staining based flow cytometry analysis (reference value: 0.2%); assay type: functional
HCT-116 [37] = test: Antitumor activity against human HCT-116 cells xenografted in BALB/c mouse assessed as reduction in tumor weight at 5 to 10 mg/kg, ip administered every 2 days; assay type: functional, organism-based; settings: dose 5-10 mg/kg

C=C(C)C(=O)N1CCc2cccc(C3=CC(=O)N(C)C3=O)c21
Activity [1]: Non-Toxic
Activity [2]: Non-Toxic
viability at 5 µM (RKO [3]): 98%
Activity (RKO [4]): 1.1%
IC50 (RKO [5]): 1100 nM
Activity (RKO [6]): inactive
viability at 2.5 µM (RKO [7]): 99%
Activity (HCT-116 [8]): inactive
Activity (HCT-116 [9]): 1.8%
Activity [10]: Non-Toxic
Activity (HCT-116 [11]): 1%
Activity (RKO [12]): 4.9%
Activity [13]: Non-Toxic
Activity (RKO [14]): inactive
Activity (HCT-116 [15]): Active
Activity (HCT-116 [16]): Dose-Dependent Effect
Activity (RKO [17]): 1.5%
Activity (HCT-116 [18]): Dose-Dependent Effect
Activity (HCT-116 [19]): inactive
Activity (HCT-116 [20]): Active
viability at 10 µM (RKO [21]): 93.4%
IC50 at 72 h [22]: 63700 nM
Activity (HCT-116 [23]): inactive
Activity (HCT-116 [24]): Dose-Dependent Effect
IC50 (HCT-116 [25]): 1570 nM
Activity (HCT-116 [26]): 3.2%
Activity [27]: Non-Toxic
Activity (HCT-116 [28]): Active
Activity (HCT-116 [29]): Active
Activity (RKO [30]): 100.1%
Activity (HCT-116 [31]): 0.7%
Activity (HCT-116 [32]): 1.7%
Activity (RKO [33]): 0.4%
Activity (RKO [34]): 0.1%
IC50 (HT-29): 1730 nM
Activity [35]: Non-Toxic
Activity (RKO [36]): 0.5%
Activity (HCT-116 [37]): Active
